Each compound was assayed on Human valve interstitial cells (VIC) (assay: Calcification inhibition in human valve interstitial cells (VIC); staining followed by spectroscopy). Conditions: VIC isolated from human aortic valves; calcification induced; test substance contacted during or after induced calcification; degree of calcification by staining and spectroscopy (FIG. 2, FIG. 3).
Assay type: cell-based
Description: Human valve interstitial cells (VIC) are isolated from human aortic valves harvested during surgery for use in calcification inhibitor testing. After isolation, calcification is induced in the cells. The activity of potential inhibitors is assayed by contacting the VIC cells with the test substance during or after the induced calcification. The degree of calcification is measured by staining followed by spectroscopy. FIG. 1 provides photomicrographs of control cells (no induced calcification, left panel), cells where calcification is induced (middle panel), and calcification in the presence of an inhibitor (right panel).

| SMILES | inhibition of calcification |
| --- | --- |
| COCCCOc1ccnc(C[S+]([O-])c2nc3ccccc3[nH]2)c1C (stereo not shown) [Rabeprazole, rabeprazole] | inhibition of calcification |
| Cc1c(OCC(F)(F)F)ccnc1C[S+]([O-])c1nc2ccccc2[nH]1 (stereo not shown) [lansoprazole] | inhibition of calcification |
| COc1ccc2[nH]c([S+]([O-])Cc3ncc(C)c(OC)c3C)nc2c1 (stereo not shown) [omeprazole] | inhibition of calcification |
| COc1ccnc(C[S+]([O-])c2nc3cc(OC(F)F)ccc3[nH]2)c1OC (stereo not shown) [pantoprazole] | inhibition of calcification |
